Structures can show the parent of a compound that is named as a salt.
Tests used:
[1] = system: bile flow and excretion of cholate; experiment: Choleretic activity in rats; format: in vivo; details: dose 200 (unit not given); for Bile flow: n=10, controls 2.72 ± 0.11, ** P < 0.01, *** P < 0.001; for Total cholate: n=10, controls 11.64 ± 0.19, ** P < 0.01
Description: The choleretic activity, compared to that of catechol, has been determined in rats by measuring both the bile flow and the excretion of cholate (cholic acid).

[2] = system: olive oil induced hyperlipaemia; experiment: Hypolipaemic activity in rats (olive oil induced hyperlipaemia); format: in vivo; details: for Triglycerides / NEFA: n=6, m ± ES; for Triglycerides: controls 252 ± 18; for NEFA: controls 1017 ± 39
Protocol: The hypolipaemia-producing activity was evaluated in other tests in which the variations in cholesterol, triglycerides, NEFA (non-esterified fatty acids) and various lipoprotein fractions were determined.
In Table 3 there is reported the effect of 6,8-dimethyl-5,7,4'-trihydroxyflavanone and of nicotinic acid in combatting olive oil induced hyperlipaemia in rats fasted for 16 hours. The substances under test were administered orally two hours before the lipid load and the hyperlipaemia was induced by administering orally 20 ml/kg of olive oil.
Sacrifice took place three hours after the administration of the oil.

[3] = system: colouring matter excreted in the bronchial liquid; experiment: Expectorant activity in mice (Nawatarih fluorescein method); format: in vivo; details: for ED50: Mus musculus, mice, oral, read-out: ED50 (dose capable of incrementing the excretion of the colouring matter by 50%)
Protocol: The expectorant activity of the compounds of the invention was evaluated by the method of Nawatarih (Kagoshima Daigaku Igaku Zasshi 27, 561, 1976) with fluorescein, according to which the increment of colouring matter excreted in the bronchial liquid is determined experimentally in mice. In the experiments the activity of 6,8-dimethyl-5,7,3',4'-tetrahydroxyflavanone was evaluated in comparison with that of bromhexine hydrochloride as reference standard. The results, given in Table 1, are expressed in ED50 (dose capable of incrementing the excretion of the colouring matter by 50%).

amount of expectoration = experiment: Expectorant activity in the rabbit (Perry and Boyd method); format: in vivo; details: Oryctolagus cuniculus, po
Protocol: The expectorant activity has also been monitored by the Perry and Boyd method (J. Pharmacol. Exp. Ther. 7 580, 1941), in which the direct amount of expectoration is determined in the rabbit.

mice = experiment: Acute toxicity in mice (oral route); format: in vivo; details: no deaths occurred at a dose rate of 3000 mg/kg
Description: (§1) ACUTE TOXICITY (LD50 in mice (oral route)

[4] = Acute toxicity in mice (oral route); format: in vivo; details: mouse, in vivo
Description: as §1

[5] = known flavanones of extractive origin; cited from earlier work

Structure (SMILES): Cc1c(O)c(C)c2c(c1O)C(=O)CC(c1ccc(O)cc1)O2 (stereo not shown) [6,8-Dimethyl-5,7,4'-trihydroxyflavanone, 6,8-dimethyl-5,7,4'-trihydroxyflavanone]
- Bile flow [1]: 5.25 ± 0.18 ml/4 h
- Total cholate [1]: 15.23 ± 0.97 mg/4 h
- Triglycerides ([2]; 50 mg/kg os): 198 ± 7 mg/100 ml
- NEFA ([2]; 50 mg/kg os): 702 ± 23 uEq/1
- NEFA, change (in parentheses) ([2]; 50 mg/kg os, vs controls): -31

Structure (SMILES): Cc1c(O)c(C)c2c(c1O)C(=O)CC(c1ccc(O)c(O)c1)O2 (stereo not shown) [6,8-dimethyl-5,7,3',4'-tetrahydroxyflavanone]
- ED50 [3]: 78 mg/kg
- therapeutic index ([3]; vs bromhexine, from ED50 and acute oral toxicity in mice): distinctly more favourable than that of bromhexine
- ED50 (amount of expectoration): 200 mg/kg
- LD0 (mice): 3000 mg/kg

Structure (SMILES): Oc1ccccc1O [(+) Catechol, catechol]
- Bile flow [1]: 4.13 ± 0.4 ml/4 h
- Total cholate [1]: 13.03 ± 0.35 mg/4 h

Structure (SMILES): CN(Cc1cc(Br)cc(Br)c1N)C1CCCCC1 [Bromhexine HCl, bromhexine hydrochloride]
- ED50 [3]: 51 mg/kg
- LD50 [4]: 2140 mg/kg

Structure (SMILES): O=C(O)c1cccnc1 [Nicotinic acid, nicotinic acid]
- Triglycerides ([2]; 173 mg/kg os): 71 ± 6 mg/100 ml
- NEFA ([2]; 173 mg/kg os): 709 ± 33 uEq/1
- NEFA, change (in parentheses) ([2]; 173 mg/kg os, vs controls): -30
- Triglycerides, change (in parentheses) ([2]; 173 mg/kg os, vs controls): -72

Structure (SMILES): O=C1C[C@@H](c2ccc(O)c(O)c2)Oc2cc(O)cc(O)c21 [eriodictyol]
- expectorant and mucolytic activity [5]: display expectorant and mucolytic activity

Structure (SMILES): Cc1c(O)c(C)c2c(c1O)C(=O)C[C@@H](c1ccc(O)cc1)O2 [farrerol]
- expectorant and mucolytic activity [5]: display expectorant and mucolytic activity
